Target: T1, wild-type NALP1 (Homo sapiens, UniProt Q9C000)
T1 construct: to generate full-length NALP1 in frame with EGFP; expressed in transfected cells; host or cells: HeLa cells, transient transfection with the pEGFP-N3 based plasmid; S-100 extract used
T1 sequence (Q9C000 1-1473): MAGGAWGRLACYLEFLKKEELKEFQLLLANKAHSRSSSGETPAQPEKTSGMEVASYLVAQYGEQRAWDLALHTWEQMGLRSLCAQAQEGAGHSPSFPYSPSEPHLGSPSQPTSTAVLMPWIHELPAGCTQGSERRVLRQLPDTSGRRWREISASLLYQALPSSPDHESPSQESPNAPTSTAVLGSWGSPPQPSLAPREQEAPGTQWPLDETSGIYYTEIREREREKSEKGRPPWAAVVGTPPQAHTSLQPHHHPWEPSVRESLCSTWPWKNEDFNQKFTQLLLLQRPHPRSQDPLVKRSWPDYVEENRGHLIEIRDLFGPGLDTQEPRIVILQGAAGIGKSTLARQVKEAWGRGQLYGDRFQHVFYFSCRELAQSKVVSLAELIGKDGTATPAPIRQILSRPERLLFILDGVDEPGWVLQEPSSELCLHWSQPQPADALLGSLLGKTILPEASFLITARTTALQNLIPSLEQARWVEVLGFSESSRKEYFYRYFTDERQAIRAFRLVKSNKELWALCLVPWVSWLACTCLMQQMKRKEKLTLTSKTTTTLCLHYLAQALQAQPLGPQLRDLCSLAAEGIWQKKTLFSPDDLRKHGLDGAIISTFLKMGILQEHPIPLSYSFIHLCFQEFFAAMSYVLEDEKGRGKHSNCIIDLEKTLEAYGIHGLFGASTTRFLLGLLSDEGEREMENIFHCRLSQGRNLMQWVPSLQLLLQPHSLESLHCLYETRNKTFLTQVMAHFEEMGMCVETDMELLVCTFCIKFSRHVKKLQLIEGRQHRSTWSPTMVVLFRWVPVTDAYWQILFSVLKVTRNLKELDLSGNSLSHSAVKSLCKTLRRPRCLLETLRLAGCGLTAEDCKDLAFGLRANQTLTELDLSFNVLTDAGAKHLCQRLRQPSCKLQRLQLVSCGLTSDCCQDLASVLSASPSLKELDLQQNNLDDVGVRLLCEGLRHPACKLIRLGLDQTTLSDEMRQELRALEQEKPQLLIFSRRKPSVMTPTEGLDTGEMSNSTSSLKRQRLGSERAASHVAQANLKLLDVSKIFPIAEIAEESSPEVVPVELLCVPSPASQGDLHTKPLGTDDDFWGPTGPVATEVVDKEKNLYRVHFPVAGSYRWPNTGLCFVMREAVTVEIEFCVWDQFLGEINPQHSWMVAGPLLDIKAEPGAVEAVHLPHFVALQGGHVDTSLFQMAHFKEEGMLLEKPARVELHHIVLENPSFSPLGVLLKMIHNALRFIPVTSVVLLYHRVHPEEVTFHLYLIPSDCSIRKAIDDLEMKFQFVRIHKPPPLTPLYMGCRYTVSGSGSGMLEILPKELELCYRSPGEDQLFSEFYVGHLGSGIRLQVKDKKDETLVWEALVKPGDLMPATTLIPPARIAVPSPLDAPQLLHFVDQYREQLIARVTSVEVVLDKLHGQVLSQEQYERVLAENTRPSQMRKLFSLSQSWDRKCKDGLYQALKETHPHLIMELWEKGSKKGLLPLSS
Assay: Fluorimetric DEVDase (caspase-3) assay in HeLa cell extracts expressing wild-type NALP1-EGFP
Assay type: biochemical
Details: 2 mM dATP, 2 mM MgCl2, 1 hour, Ac-DEVD-AMC substrate
Method: Cell extract preparation and fluorimetric assay of caspase activity. Preparation of cell extracts, dATP incubation and caspase-3 activities assays were performed as described by Liu et al. (1996). Briefly, HeLa cells were grown in DMEM, 10% FBS. Cells were plated in T175 flasks to 60% confluence. Control vector pEGFP or wild-type or NBS mutant NALP1-EGFP expression plasmids were transfected into HeLa cells using Lipofectamine Plus. Cells were collected in homogenization buffer (20 mM HEPES pH 7.5, 10 mM KCl, 1 mM sodium EDTA, […], 1 mM sodium EGTA, 0.1% CHAPS, 1 mM DTT, 0.1 mM PMSF and protease inhibitor cocktail tablets (Roche)), 24 hours after transfection. Cells were chilled on ice for 15 minutes and homogenized by douncing 30 times in a glass douncer. Samples were centrifuged at 1000×g for 10 minutes at 4° C. […] After 2 hours incubation, liberation of AMC (7-amino-4-methylcoumarin) from the substrate was monitored using excitation/emission wavelength pairs (λex/λem) of 380/460 nm using a SpectraFluor Plus instrument (Tecan). Triplicate samples were evaluated with or without specific inhibitors. […] Normalized data from multiple experiments were expressed as means±standard deviation. For each experiment, the expression of EGFP-tagged NALP1 proteins was analyzed by anti-GFP immunoblot and quantified by densitometry.

DEVDase activity, extracts with wild-type NALP1: significantly elevated
SMILES: Nc1ncnc2c1ncn2[C@H]1C[C@H](O)[C@@H](COP(=O)(O)OP(=O)(O)OP(=O)(O)O)O1 [dATP]

— US20040248775A1, “Methods for screening inhibitors of apoptosis” (Wyeth, priority 2003, published 2004)
